Source: the Kinase Knowledgebase extract (Sharma et al. 2016)

Tests used:
PIK3CD (Human) [1] = molecular target: PIK3CD (Human) (UniProt O00329); assay: Enzyme Assay
PIK3CA (human) [2] = molecular target: PIK3CA (human) (UniProt P42336); assay: Enzyme Assay
PIK3CG (human) [3] = molecular target: PIK3CG (human) (UniProt P48736); assay: Enzyme Assay
PIK3CD (Human) [4] = molecular target: PIK3CD (Human) (UniProt O00329); assay: Cell-Based Assay; conditions: rat-1
PIK3CA (human) [5] = molecular target: PIK3CA (human) (UniProt P42336); assay: Cell-Based Assay; conditions: rat-1
PIK3CG (human) [6] = molecular target: PIK3CG (human) (UniProt P48736); assay: Cell-Based Assay; conditions: u937

Chain of PIK3CG (human) (P48736 whole entry, looked up): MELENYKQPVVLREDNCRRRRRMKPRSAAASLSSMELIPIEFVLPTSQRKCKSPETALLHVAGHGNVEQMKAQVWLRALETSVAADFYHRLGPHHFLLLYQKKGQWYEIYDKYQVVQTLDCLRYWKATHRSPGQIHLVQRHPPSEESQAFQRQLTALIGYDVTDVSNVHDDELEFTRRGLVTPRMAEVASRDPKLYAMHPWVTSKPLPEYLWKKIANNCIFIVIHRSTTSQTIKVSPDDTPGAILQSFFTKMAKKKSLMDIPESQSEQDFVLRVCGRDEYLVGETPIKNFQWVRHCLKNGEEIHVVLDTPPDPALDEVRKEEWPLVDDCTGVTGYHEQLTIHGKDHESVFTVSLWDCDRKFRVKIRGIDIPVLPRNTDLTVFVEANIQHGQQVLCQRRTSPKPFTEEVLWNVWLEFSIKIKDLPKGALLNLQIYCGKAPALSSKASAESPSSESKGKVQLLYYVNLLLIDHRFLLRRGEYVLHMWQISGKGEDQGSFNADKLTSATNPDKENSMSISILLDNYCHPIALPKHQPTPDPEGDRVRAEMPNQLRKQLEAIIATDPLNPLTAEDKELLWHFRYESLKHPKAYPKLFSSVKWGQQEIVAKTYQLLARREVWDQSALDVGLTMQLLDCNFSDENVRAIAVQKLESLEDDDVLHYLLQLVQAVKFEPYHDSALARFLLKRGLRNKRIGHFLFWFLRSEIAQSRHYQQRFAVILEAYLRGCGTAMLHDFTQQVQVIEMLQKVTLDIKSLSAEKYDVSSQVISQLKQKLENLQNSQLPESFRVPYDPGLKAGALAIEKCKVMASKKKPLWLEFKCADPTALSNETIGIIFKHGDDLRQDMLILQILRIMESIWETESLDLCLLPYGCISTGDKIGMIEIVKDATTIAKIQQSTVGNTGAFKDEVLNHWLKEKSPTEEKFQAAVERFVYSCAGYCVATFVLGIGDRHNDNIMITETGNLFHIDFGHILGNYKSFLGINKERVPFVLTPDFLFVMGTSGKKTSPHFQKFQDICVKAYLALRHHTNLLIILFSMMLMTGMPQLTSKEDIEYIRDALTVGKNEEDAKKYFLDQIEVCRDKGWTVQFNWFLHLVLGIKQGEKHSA
Chain of PIK3CD (Human) (O00329 whole entry, looked up): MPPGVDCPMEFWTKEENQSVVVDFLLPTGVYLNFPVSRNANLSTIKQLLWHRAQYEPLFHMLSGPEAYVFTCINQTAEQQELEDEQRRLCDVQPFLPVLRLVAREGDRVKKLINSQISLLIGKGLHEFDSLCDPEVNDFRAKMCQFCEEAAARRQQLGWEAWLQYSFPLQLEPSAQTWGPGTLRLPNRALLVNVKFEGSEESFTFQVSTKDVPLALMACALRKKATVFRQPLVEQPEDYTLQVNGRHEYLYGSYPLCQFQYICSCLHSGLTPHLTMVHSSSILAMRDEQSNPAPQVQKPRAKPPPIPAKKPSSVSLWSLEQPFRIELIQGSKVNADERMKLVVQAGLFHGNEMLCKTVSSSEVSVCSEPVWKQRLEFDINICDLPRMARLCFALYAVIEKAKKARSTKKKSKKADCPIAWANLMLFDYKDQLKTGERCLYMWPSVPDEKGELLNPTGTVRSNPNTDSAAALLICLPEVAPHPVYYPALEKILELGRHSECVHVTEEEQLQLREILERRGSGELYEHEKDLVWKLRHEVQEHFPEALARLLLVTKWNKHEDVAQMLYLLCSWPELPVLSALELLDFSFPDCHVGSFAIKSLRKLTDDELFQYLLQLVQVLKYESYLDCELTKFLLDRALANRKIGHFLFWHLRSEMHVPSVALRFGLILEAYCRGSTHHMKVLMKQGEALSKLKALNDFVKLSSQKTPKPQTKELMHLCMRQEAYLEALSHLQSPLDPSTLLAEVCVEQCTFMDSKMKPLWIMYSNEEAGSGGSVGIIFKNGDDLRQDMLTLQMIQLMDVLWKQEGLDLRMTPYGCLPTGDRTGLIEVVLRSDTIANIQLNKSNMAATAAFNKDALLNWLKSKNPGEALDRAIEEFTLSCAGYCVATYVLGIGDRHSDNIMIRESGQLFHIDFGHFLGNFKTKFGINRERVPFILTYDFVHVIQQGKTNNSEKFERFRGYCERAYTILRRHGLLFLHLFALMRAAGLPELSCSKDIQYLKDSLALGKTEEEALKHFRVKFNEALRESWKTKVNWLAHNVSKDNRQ
Chain of PIK3CA (human) (P42336 whole entry, looked up): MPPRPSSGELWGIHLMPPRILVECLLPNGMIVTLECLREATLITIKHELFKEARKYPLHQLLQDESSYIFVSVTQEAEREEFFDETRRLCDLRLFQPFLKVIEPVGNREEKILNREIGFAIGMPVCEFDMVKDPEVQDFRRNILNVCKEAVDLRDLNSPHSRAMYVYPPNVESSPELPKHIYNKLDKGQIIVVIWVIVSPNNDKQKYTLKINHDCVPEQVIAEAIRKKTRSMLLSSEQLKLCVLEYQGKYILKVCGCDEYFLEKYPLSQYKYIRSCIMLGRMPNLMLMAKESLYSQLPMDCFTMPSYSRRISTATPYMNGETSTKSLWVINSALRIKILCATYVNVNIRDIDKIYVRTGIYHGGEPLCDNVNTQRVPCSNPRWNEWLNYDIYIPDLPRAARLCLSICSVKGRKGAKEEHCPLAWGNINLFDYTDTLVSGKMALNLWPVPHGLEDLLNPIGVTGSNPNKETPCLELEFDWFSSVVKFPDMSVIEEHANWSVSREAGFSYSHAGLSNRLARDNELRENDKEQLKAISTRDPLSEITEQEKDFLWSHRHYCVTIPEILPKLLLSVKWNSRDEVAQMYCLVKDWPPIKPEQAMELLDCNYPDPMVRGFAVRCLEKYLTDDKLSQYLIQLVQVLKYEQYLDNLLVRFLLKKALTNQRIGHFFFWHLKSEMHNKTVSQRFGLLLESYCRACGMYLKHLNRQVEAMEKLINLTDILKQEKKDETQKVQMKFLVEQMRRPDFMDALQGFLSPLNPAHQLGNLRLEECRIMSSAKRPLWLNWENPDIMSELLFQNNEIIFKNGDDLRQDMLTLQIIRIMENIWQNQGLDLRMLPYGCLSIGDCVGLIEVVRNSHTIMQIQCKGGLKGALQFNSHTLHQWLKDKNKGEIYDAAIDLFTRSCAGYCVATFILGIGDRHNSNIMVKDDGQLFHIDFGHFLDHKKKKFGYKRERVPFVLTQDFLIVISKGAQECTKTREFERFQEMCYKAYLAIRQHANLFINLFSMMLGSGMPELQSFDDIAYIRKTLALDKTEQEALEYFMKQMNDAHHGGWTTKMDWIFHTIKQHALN

`N#Cc1c(N)ncnc1N1C[C@@H](O)C[C@H]1c1nc2ccc(F)c(F)c2c(=O)n1-c1ccccc1` gave an IC50 (PIK3CD (Human) [1]) of 96 nM, an IC50 (PIK3CA (human) [2]) of 4000 nM and an IC50 (PIK3CG (human) [3]) of 1300 nM. The IC50 (PIK3CD (Human) [4]) was 45 nM, the IC50 (PIK3CA (human) [5]) was greater than 10000 nM and the IC50 (PIK3CG (human) [6]) was 1590 nM.
Compound `Cc1nc(N)nc(N2C[C@@H](O)C[C@H]2c2nc3cccc(Cl)c3c(=O)n2-c2cccnc2)c1C#N` has an IC50 (PIK3CD (Human) [1]) of 12 nM, an IC50 (PIK3CA (human) [2]) of 1000 nM and an IC50 (PIK3CG (human) [3]) of 86 nM. The IC50 (PIK3CD (Human) [4]) was 9 nM, the IC50 (PIK3CA (human) [5]) was 6240 nM and the IC50 (PIK3CG (human) [6]) was 24 nM.
For `CS(=O)(=O)N1CC[C@H](n2c([C@@H]3CCCN3c3ncnc4[nH]cnc34)nc3cccc(Cl)c3c2=O)C1`, the IC50 (PIK3CD (Human) [1]) was 360 nM, the IC50 (PIK3CA (human) [2]) was greater than 10000 nM and the IC50 (PIK3CG (human) [3]) was 370 nM. The IC50 (PIK3CD (Human) [4]) was 939 nM, the IC50 (PIK3CA (human) [5]) was greater than 10000 nM and the IC50 (PIK3CG (human) [6]) was greater than 10000 nM.
In the case of `N#Cc1c(N)ncnc1N1CCC[C@H]1c1nc2cccc(O)c2c(=O)n1-c1ccccc1`, the IC50 (PIK3CD (Human) [1]) is reported as 3 nM, the IC50 (PIK3CA (human) [2]) is reported as 1430 nM and the IC50 (PIK3CG (human) [3]) is reported as 110 nM. The IC50 (PIK3CD (Human) [4]) was 15 nM, the IC50 (PIK3CA (human) [5]) was greater than 10000 nM and the IC50 (PIK3CG (human) [6]) was 494 nM.
For `N#Cc1c(N)ncnc1N1C[C@@H](O)C[C@H]1c1nc2cccc(C(F)(F)F)c2c(=O)n1-c1cccc(F)c1`, the IC50 (PIK3CD (Human) [1]) was 82 nM, the IC50 (PIK3CA (human) [2]) was 9300 nM and the IC50 (PIK3CG (human) [3]) was 720 nM. For the same compound, the IC50 (PIK3CD (Human) [4]) was 29 nM, the IC50 (PIK3CA (human) [5]) was greater than 10000 nM and the IC50 (PIK3CG (human) [6]) was 146 nM.
`Cc1nc(N)nc(N2C[C@@H](O)C[C@H]2c2nc3cccc(F)c3c(=O)n2-c2ccccc2)c1C#N` showed an IC50 (PIK3CD (Human) [1]) of 18 nM, an IC50 (PIK3CA (human) [2]) of 1300 nM and an IC50 (PIK3CG (human) [3]) of 90 nM. It also gave an IC50 (PIK3CD (Human) [4]) of 24 nM, an IC50 (PIK3CA (human) [5]) of 6600 nM and an IC50 (PIK3CG (human) [6]) of 114 nM.
Compound `CS(=O)(=O)N[C@H]1C[C@@H](c2nc3cccc(Cl)c3c(=O)n2-c2ccccc2)N(c2ncnc3[nH]cnc23)C1` has an IC50 (PIK3CD (Human) [1]) of 4 nM, an IC50 (PIK3CA (human) [2]) of 300 nM and an IC50 (PIK3CG (human) [3]) of 17 nM. It also gave an IC50 (PIK3CD (Human) [4]) of 76 nM, an IC50 (PIK3CA (human) [5]) greater than 10000 nM and an IC50 (PIK3CG (human) [6]) of 148 nM.
For `Cc1nc(N)nc(N2C[C@@H](O)C[C@H]2c2nc3cccc(OC(F)F)c3c(=O)n2-c2ccccc2)c1C#N`, the IC50 (PIK3CD (Human) [1]) was 75 nM, the IC50 (PIK3CA (human) [2]) was 450 nM and the IC50 (PIK3CG (human) [3]) was 140 nM. It also gave an IC50 (PIK3CD (Human) [4]) of 45 nM, an IC50 (PIK3CA (human) [5]) of 4670 nM and an IC50 (PIK3CG (human) [6]) of 70 nM.
For `N#Cc1c(N)ncnc1N1C[C@@H](O)C[C@H]1c1nc2cccc(F)c2c(=O)n1-c1ccccc1`, the IC50 (PIK3CD (Human) [1]) was 82 nM, the IC50 (PIK3CA (human) [2]) was greater than 10000 nM and the IC50 (PIK3CG (human) [3]) was 2100 nM. It also gave an IC50 (PIK3CD (Human) [4]) of 23 nM, an IC50 (PIK3CA (human) [5]) greater than 10000 nM and an IC50 (PIK3CG (human) [6]) of 709 nM.
In the case of `Cc1nc(N)nc(N2C[C@@H](O)C[C@H]2c2nc3ccc(F)c(F)c3c(=O)n2-c2ccccc2)c1C#N`, the IC50 (PIK3CD (Human) [1]) is reported as 43 nM, the IC50 (PIK3CA (human) [2]) is reported as 700 nM and the IC50 (PIK3CG (human) [3]) is reported as 97 nM. It also gave an IC50 (PIK3CD (Human) [4]) of 30 nM, an IC50 (PIK3CA (human) [5]) of 7130 nM and an IC50 (PIK3CG (human) [6]) of 33 nM.
Compound `CS(=O)(=O)c1c(F)ccc2nc([C@@H]3CCCN3c3ncnc(N)c3C#N)n(-c3ccccc3)c(=O)c12` has an IC50 (PIK3CD (Human) [1]) of 84 nM, an IC50 (PIK3CA (human) [2]) of 4500 nM and an IC50 (PIK3CG (human) [3]) of 7200 nM. The IC50 (PIK3CD (Human) [4]) was 65 nM, the IC50 (PIK3CA (human) [5]) was greater than 10000 nM and the IC50 (PIK3CG (human) [6]) was greater than 10000 nM.
In the case of `Cc1nc(N)nc(N2CCC[C@H]2c2nc3ccc(F)c(S(C)(=O)=O)c3c(=O)n2-c2ccccc2)c1C#N`, the IC50 (PIK3CD (Human) [1]) is reported as 38 nM, the IC50 (PIK3CA (human) [2]) is reported as 5500 nM and the IC50 (PIK3CG (human) [3]) is reported as 1100 nM. For the same compound, the IC50 (PIK3CD (Human) [4]) was 103 nM, the IC50 (PIK3CA (human) [5]) was greater than 10000 nM and the IC50 (PIK3CG (human) [6]) was 1580 nM.
In the case of `Cc1nc(N)nc(N2C[C@@H](O)C[C@H]2c2nc3cccc(C(F)(F)F)c3c(=O)n2-c2cccc(F)c2)c1C#N`, the IC50 (PIK3CD (Human) [1]) is reported as 24 nM, the IC50 (PIK3CA (human) [2]) is reported as 1700 nM and the IC50 (PIK3CG (human) [3]) is reported as 80 nM. It also gave an IC50 (PIK3CD (Human) [4]) of 16 nM, an IC50 (PIK3CA (human) [5]) of 6570 nM and an IC50 (PIK3CG (human) [6]) of 10 nM.
Work on `Nc1nc(N2CCC[C@H]2c2nc3cccc(Cl)c3c(=O)n2-c2ccccc2)c2ncsc2n1` yielded an IC50 (PIK3CD (Human) [1]) of 10 nM, an IC50 (PIK3CA (human) [2]) of 350 nM and an IC50 (PIK3CG (human) [3]) of 19 nM. It also gave an IC50 (PIK3CD (Human) [4]) of less than 3 nM, an IC50 (PIK3CA (human) [5]) greater than 10000 nM and an IC50 (PIK3CG (human) [6]) of 59 nM.
With `CS(=O)(=O)c1cccc2nc([C@@H]3CCCN3c3ncnc(N)c3C#N)n(-c3ccccc3)c(=O)c12` the IC50 (PIK3CD (Human) [1]) was 7 nM, the IC50 (PIK3CA (human) [2]) was 5100 nM and the IC50 (PIK3CG (human) [3]) was 1200 nM. The IC50 (PIK3CD (Human) [4]) was 38 nM, the IC50 (PIK3CA (human) [5]) was 4600 nM and the IC50 (PIK3CG (human) [6]) was 821 nM.
Compound `Cc1nc(N)nc(N2C[C@@H](O)C[C@H]2c2nc3cccc(C)c3c(=O)n2-c2ccccc2)c1C#N` has an IC50 (PIK3CD (Human) [1]) of less than 3 nM, an IC50 (PIK3CA (human) [2]) of 160 nM and an IC50 (PIK3CG (human) [3]) of less than 3 nM. The IC50 (PIK3CD (Human) [4]) was less than 3 nM, the IC50 (PIK3CA (human) [5]) was 601 nM and the IC50 (PIK3CG (human) [6]) was 35 nM.
Compound `N#Cc1c(N)ncnc1N1CCC[C@H]1c1nc2cccc(C(F)(F)F)c2c(=O)n1-c1cccc(F)c1` has an IC50 (PIK3CD (Human) [1]) of 19 nM, an IC50 (PIK3CA (human) [2]) of 5600 nM and an IC50 (PIK3CG (human) [3]) of 660 nM. The IC50 (PIK3CD (Human) [4]) was 38 nM, the IC50 (PIK3CA (human) [5]) was 9950 nM and the IC50 (PIK3CG (human) [6]) was 718 nM.
`N#Cc1c(N)nc(N)nc1N1CCC[C@H]1c1nc2cccc(C(F)(F)F)c2c(=O)n1-c1ccccc1` showed an IC50 (PIK3CD (Human) [1]) of 46 nM, an IC50 (PIK3CA (human) [2]) of 290 nM and an IC50 (PIK3CG (human) [3]) of 52 nM. For the same compound, the IC50 (PIK3CD (Human) [4]) was 6 nM, the IC50 (PIK3CA (human) [5]) was 2370 nM and the IC50 (PIK3CG (human) [6]) was 35 nM.
`CO[C@H]1C[C@@H](c2nc3cccc(Cl)c3c(=O)n2-c2ccccc2)N(c2nc(N)nc(C)c2C#N)C1` gave an IC50 (PIK3CD (Human) [1]) of 53 nM, an IC50 (PIK3CA (human) [2]) of 565 nM and an IC50 (PIK3CG (human) [3]) of 30 nM. It also gave an IC50 (PIK3CD (Human) [4]) of 6 nM, an IC50 (PIK3CA (human) [5]) of 1320 nM and an IC50 (PIK3CG (human) [6]) of 38 nM.
Work on `N#Cc1c(N)ncnc1N1CCC[C@H]1c1nc2cccc(Cl)c2c(=O)n1C1CC1` yielded an IC50 (PIK3CD (Human) [1]) of 7 nM, an IC50 (PIK3CA (human) [2]) of 560 nM and an IC50 (PIK3CG (human) [3]) of 25 nM. For the same compound, the IC50 (PIK3CD (Human) [4]) was 43 nM, the IC50 (PIK3CA (human) [5]) was 4020 nM and the IC50 (PIK3CG (human) [6]) was 74 nM.
